This is an account of results in the supplement of paper PMC10307832.

Common to all, as to experiment: relative viability (nuclei count vs DMSO), 5 days (fraction); higher = more cells survive
Compound in assay [1]: Cc1cc([C@@H](C)Nc2ccccc2C(=O)O)c2nc(N3CCOCC3)cc(=O)n2c1 [AZD6482] + COc1cccc2cc(-c3nc([C@H]4CC[C@H](C(=O)O)CC4)n4ncnc(N)c34)[nH]c12 [OSI-027] (partner 0.5 µM)
The method in brief: (§1)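 Dosing by pin tool came one day after lung cancer cell lines were seeded in 1536-well plates, using either one drug or a fixed anchor-drug dose plus five library-drug doses (not always all listed) in √10 steps. After 5 days, nuclei were counted on 4× images. Relative viability is treated-well nuclei count divided by vehicle-well nuclei count, and values are medians of duplicate plates.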

Compound in assay [2]: Cc1cc([C@@H](C)Nc2ccccc2C(=O)O)c2nc(N3CCOCC3)cc(=O)n2c1 [AZD6482] + CC(=O)Nc1cccc(-n2c(=O)n(C3CC3)c(=O)c3c(Nc4ccc(I)cc4F)n(C)c(=O)c(C)c32)c1 [Trametinib] (partner 0.02 µM)
The method in brief:
as §1

Compound in assay [3]: COc1cc2nc(N3CCCN(C)CC3)nc(NC3CCN(Cc4ccccc4)CC3)c2cc1OC + O=C(c1cc(Cc2n[nH]c(=O)c3ccccc23)ccc1F)N1CCN(C(=O)C2CC2)CC1 [Olaparib] (partner 8 µM)
In outline:
as §1

Compound in assay [4]: Cc1cc([C@@H](C)Nc2ccccc2C(=O)O)c2nc(N3CCOCC3)cc(=O)n2c1 [AZD6482] + C[C@@H](Oc1cc(-c2cnn(C3CCNCC3)c2)cnc1N)c1c(Cl)ccc(F)c1Cl [Crizotinib] (partner 1 µM)
The method in brief: as §1

For the cell line EMC-BAC-2, the relative viability was 0.394 in assay [1] (first compound 0.08 µM); 0.376 in assay [1] (first compound 0.253 µM); 0.347 in assay [1] (first compound 0.8 µM); 0.273 in assay [1] (first compound 2.53 µM); 0.316 in assay [1] (first compound 8 µM); 0.841 in assay [2] (first compound 0.08 µM). The relative viability amounted to 0.956 in assay [2] (first compound 0.253 µM); 0.893 in assay [2] (first compound 0.8 µM); 0.667 in assay [2] (first compound 2.53 µM); 0.706 in assay [2] (first compound 8 µM); 0.494 in assay [3] (first compound 0.2 µM); 0.406 in assay [3] (first compound 0.6325 µM). Also, the relative viability came to 0.438 in assay [3] (first compound 2 µM); 0.511 in assay [3] (first compound 6.325 µM); 0.66 in assay [4] (first compound 0.08 µM); 0.717 in assay [4] (first compound 0.253 µM); 0.858 in assay [4] (first compound 0.8 µM); 0.617 in assay [4] (first compound 2.53 µM). Moreover, the relative viability in assay [4] (first compound 8 µM) came to 0.653.

For the cell line LK-2, the relative viability came to 0.222 in assay [1] (first compound 0.08 µM); 0.2 in assay [1] (first compound 0.253 µM); 0.177 in assay [1] (first compound 0.8 µM); 0.196 in assay [1] (first compound 2.53 µM); 0.177 in assay [1] (first compound 8 µM); 0.616 in assay [2] (first compound 0.08 µM). The relative viability in assay [2] (first compound 0.253 µM) amounted to 0.649; in assay [2] (first compound 0.8 µM), 0.782; in assay [2] (first compound 2.53 µM) it was 0.623; in assay [2] (first compound 8 µM), 0.564; in assay [3] (first compound 0.2 µM) it was 0.778; in assay [3] (first compound 0.6325 µM), 0.68. For the same cell line, the relative viability in assay [3] (first compound 2 µM) was 0.893; in assay [3] (first compound 6.325 µM), 0.867; in assay [4] (first compound 0.08 µM), 0.24; in assay [4] (first compound 0.8 µM) it was 0.263; in assay [4] (first compound 2.53 µM) it was 0.244; in assay [4] (first compound 8 µM) it was 0.239.

As to NCI-H2126, the relative viability in assay [1] (first compound 0.08 µM) was 0.647; in assay [1] (first compound 0.253 µM), 0.652; in assay [1] (first compound 0.8 µM) it was 0.704; in assay [1] (first compound 2.53 µM), 0.403; in assay [1] (first compound 8 µM), 0.485; in assay [2] (first compound 0.08 µM), 0.538. Also, the relative viability in assay [2] (first compound 0.253 µM) is 0.531; in assay [2] (first compound 0.8 µM) it was 0.448; in assay [2] (first compound 2.53 µM), 0.39; in assay [2] (first compound 8 µM) it was 0.351; in assay [3] (first compound 0.2 µM), 1.01; in assay [3] (first compound 0.6325 µM) it was 0.892. Also, the relative viability in assay [3] (first compound 2 µM) worked out at 0.883; in assay [3] (first compound 6.325 µM), 0.919; in assay [4] (first compound 0.08 µM), 0.954; in assay [4] (first compound 0.253 µM) it was 0.987; in assay [4] (first compound 0.8 µM), 1.01; in assay [4] (first compound 2.53 µM), 0.787. In addition, the relative viability in assay [4] (first compound 8 µM) stood at 0.777.

For the cell line NCI-H3122, the relative viability in assay [1] (first compound 0.08 µM) is 1.01; in assay [1] (first compound 0.253 µM), 1.01; in assay [1] (first compound 0.8 µM) it was 0.89; in assay [1] (first compound 8 µM) it was 0.465; in assay [2] (first compound 0.08 µM), 0.211; in assay [2] (first compound 0.253 µM), 0.23. Besides, the relative viability came out at 0.184 in assay [2] (first compound 0.8 µM); 0.181 in assay [2] (first compound 2.53 µM); 0.161 in assay [2] (first compound 8 µM); 0.644 in assay [3] (first compound 0.2 µM); 0.616 in assay [3] (first compound 0.6325 µM); 0.634 in assay [3] (first compound 2 µM). Also, the relative viability in assay [3] (first compound 6.325 µM) was 0.629; in assay [4] (first compound 0.08 µM) it was 0.243; in assay [4] (first compound 0.253 µM), 0.285; in assay [4] (first compound 0.8 µM), 0.27; in assay [4] (first compound 2.53 µM) it was 0.212; in assay [4] (first compound 8 µM), 0.25.

Consider NCI-H1975, for which the relative viability in assay [1] (first compound 0.08 µM) came to 0.631; in assay [1] (first compound 0.253 µM), 0.616; in assay [1] (first compound 0.8 µM) it was 0.779; in assay [1] (first compound 2.53 µM), 0.495; in assay [1] (first compound 8 µM), 0.427; in assay [2] (first compound 0.08 µM) it was 0.287. For the same cell line, the relative viability in assay [2] (first compound 0.253 µM) came to 0.32; in assay [2] (first compound 0.8 µM), 0.307; in assay [2] (first compound 2.53 µM) it was 0.278; in assay [2] (first compound 8 µM), 0.39; in assay [3] (first compound 0.2 µM), 0.761; in assay [3] (first compound 0.6325 µM), 0.755. In addition, the relative viability in assay [3] (first compound 2 µM) was 0.915; in assay [3] (first compound 6.325 µM), 0.823; in assay [4] (first compound 0.08 µM), 0.841; in assay [4] (first compound 0.253 µM), 0.908; in assay [4] (first compound 0.8 µM), 1.03; in assay [4] (first compound 2.53 µM) it was 0.737. In addition, the relative viability in assay [4] (first compound 8 µM) amounted to 0.764.

With NCI-H1944, the relative viability turned out to be 0.389 in assay [1] (first compound 0.08 µM); 0.417 in assay [1] (first compound 0.253 µM); 0.428 in assay [1] (first compound 0.8 µM); 0.249 in assay [1] (first compound 2.53 µM); 0.301 in assay [1] (first compound 8 µM); 0.38 in assay [2] (first compound 0.08 µM). Further, the relative viability was determined as 0.375 in assay [2] (first compound 0.253 µM); 0.426 in assay [2] (first compound 0.8 µM); 0.351 in assay [2] (first compound 2.53 µM); 0.335 in assay [2] (first compound 8 µM); 0.416 in assay [3] (first compound 0.2 µM); 0.436 in assay [3] (first compound 0.6325 µM). Besides, the relative viability in assay [3] (first compound 2 µM) was 0.397; in assay [3] (first compound 6.325 µM), 0.396; in assay [4] (first compound 0.08 µM), 1.01; in assay [4] (first compound 0.253 µM), 1.07; in assay [4] (first compound 0.8 µM), 1.12; in assay [4] (first compound 2.53 µM) it was 0.836. In addition, in assay [4] (first compound 8 µM), the relative viability is 0.792.

On to LU99A, for which the relative viability in assay [1] (first compound 0.08 µM) came out at 0.301; in assay [1] (first compound 0.253 µM) it was 0.276; in assay [1] (first compound 0.8 µM), 0.325; in assay [1] (first compound 2.53 µM) it was 0.203; in assay [1] (first compound 8 µM), 0.3; in assay [2] (first compound 0.08 µM), 0.457. In addition, the relative viability in assay [2] (first compound 0.253 µM) came to 0.478; in assay [2] (first compound 0.8 µM), 0.539; in assay [2] (first compound 2.53 µM) it was 0.568; in assay [2] (first compound 8 µM) it was 0.475; in assay [3] (first compound 0.2 µM), 0.287; in assay [3] (first compound 0.6325 µM), 0.215. The relative viability stood at 0.249 in assay [3] (first compound 2 µM); 0.287 in assay [3] (first compound 6.325 µM); 0.609 in assay [4] (first compound 0.08 µM); 0.495 in assay [4] (first compound 0.253 µM); 0.591 in assay [4] (first compound 0.8 µM); 0.466 in assay [4] (first compound 2.53 µM). The relative viability in assay [4] (first compound 8 µM) is 0.471.
